Molecular target: T1, SIRT1 (Homo sapiens, UniProt Q96EB6)
T1 sequence (Q96EB6 1-747): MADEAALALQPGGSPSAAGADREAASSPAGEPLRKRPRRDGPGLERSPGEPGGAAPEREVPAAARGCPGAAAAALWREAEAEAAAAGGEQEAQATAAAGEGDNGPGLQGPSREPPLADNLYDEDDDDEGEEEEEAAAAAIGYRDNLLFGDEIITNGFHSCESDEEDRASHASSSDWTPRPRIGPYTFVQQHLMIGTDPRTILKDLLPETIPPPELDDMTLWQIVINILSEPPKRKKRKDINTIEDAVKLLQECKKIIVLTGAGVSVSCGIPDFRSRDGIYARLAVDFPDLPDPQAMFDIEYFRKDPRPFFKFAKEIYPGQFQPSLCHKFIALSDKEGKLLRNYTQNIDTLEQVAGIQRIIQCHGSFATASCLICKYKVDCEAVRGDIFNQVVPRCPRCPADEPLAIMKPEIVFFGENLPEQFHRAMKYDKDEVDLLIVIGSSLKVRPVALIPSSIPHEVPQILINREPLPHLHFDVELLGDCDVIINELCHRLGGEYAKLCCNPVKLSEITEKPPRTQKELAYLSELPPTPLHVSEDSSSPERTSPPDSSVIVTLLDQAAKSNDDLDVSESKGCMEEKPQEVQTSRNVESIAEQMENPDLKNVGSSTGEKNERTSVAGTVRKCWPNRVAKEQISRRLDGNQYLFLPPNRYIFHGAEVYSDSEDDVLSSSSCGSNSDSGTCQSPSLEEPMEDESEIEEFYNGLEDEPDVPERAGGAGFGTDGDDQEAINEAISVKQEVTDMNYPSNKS
Experiment: Trp mass spectrometry assay of SIRT1 activation
Format: biochemical
Settings: for TRP Activity (EC1.5) / Emax: Trp peptide assay; for TRP Activity (EC1.5): EC1.5 = concentration that results in 150% activation of SIRT1; for Emax: maximum activity relative to control (100%), read-out: TRP MAX RESP (percent maximum fold activation)
Excerpt: Mass spectrometry based assays were used to identify modulators of SIRT1 activity. […] The peptide was labeled with the fluorophore STMR (excitation 540 nm/emission 580 nm) at the C-terminus. The sequence of the peptide substrate was based on p53 with several modifications. In addition, the methionine residue naturally present in the sequence was replaced with the norleucine because the methionine may be susceptible to oxidation during synthesis and purification. The Trp based assay utilized a peptide having an amino acid residues as follows: Ac-R-H-K-K(Ac)-W-NH2 (SEQ ID NO: 2).
The Trp mass spectrometry assay was conducted as follows. 0.5 μM peptide substrate and 120 μM βNAD^+ were incubated with 10 nM SIRT1 for 25 minutes at 25° C. in a reaction buffer (50 mM HEPES pH 7.5, […], 1 mM DTT, 0.05% BSA). The SIRT1 protein was obtained by cloning the SirT1 gene into a T7-promoter containing vector, which was then expressed in BL21(DE3) bacterial cells and purified as described in further detail below. Test compound was added at varying concentrations to this reaction mixture and the resulting reactions were monitored. After the 25 minute incubation with SIRT1, 10 μL of 10% formic acid was added to stop the reaction. The resulting reactions were sealed and frozen for later mass spec analysis. The relative SIRT1 activity was then determined by measuring the amount of O-acetyl-ADP-ribose (OAADPR) formed (or, alternatively, the amount of deacetylated Trp peptide generated) by the NAD-dependent sirtuin deacetylation reaction in the presence of varying concentrations of the test compound versus control reactions lacking the test compound. The degree to which the test agent activated deacetylation by SIRT1 was expressed as EC1.5 (i.e., the concentration of compound required to increase SIRT1 activity by 50% over the control lacking test compound), and Percent Maximum Activation (i.e., the maximum activity relative to control (100%) obtained for the test compound).
This time point was the same as that used for test compounds and, within the linear range, the endpoint represents a change in velocity.
For the above assay, SIRT1 protein was expressed and purified as follows. The SirT1 gene was cloned into a T7-promoter containing vector and transformed into BL21(DE3). The protein was expressed by induction with 1 mM IPTG as an N-terminal His-tag fusion protein at 18° C. overnight and harvested at 30,000×g. Cells were lysed with lysozyme in lysis buffer (50 mM Tris-HCl, 2 mM Tris[2-carboxyethyl]phosphine (TCEP), 10 μM ZnCl2, 200 mM NaCl) and further treated with sonication for 10 min for complete lysis. The protein was purified over a Ni-NTA column (Amersham) and fractions containing pure protein were pooled, concentrated and run over a sizing column (Sephadex S200 26/60 global). The peak containing soluble protein was collected and run on an Ion-exchange column (MonoQ). Gradient elution (200 mM-500 mM NaCl) yielded pure protein. This protein was concentrated and dialyzed against dialysis buffer (20 mM Tris-HCl, 2 mM TCEP) overnight. The protein was aliquoted and frozen at −80° C. until further use.
“NT” means not tested; “ND” means not determinable.

[1] = Trp mass spectrometry assay, EC1.5 = concentration of test compound that results in 150% activation of SIRT1
[2] = concentration giving 150% activation of SIRT1, Trp peptide substrate
[3] = Trp mass spectrometry assay, concentration of test compound giving 150% activation of SIRT1

TRP Activity (EC1.5)	Emax	SMILES	also measured
C (C (EC1.5>25 μM))	< 150%	Cc1cc(-c2ccc3c(n2)N(C(=O)N2CCCCC2)[C@H]2CCN3C2)ccn1 [(9S)-5-(2-methylpyridin-4-yl)-8-[(piperidin-1-yl)carbonyl]-1,6,8-triazatricyclo[7.2.1.0 {2,7}]dodeca-2,4,6-triene]	
C (C (EC1.5>25 μM))	< 150%	C[C@@H]1CN(c2ccc3c(n2)N(C(=O)Nc2cnccn2)[C@H]2CCN3C2)CCN1 [(9S)-5-[(3R)-3-methylpiperazin-1-yl]-N-(pyrazin-2-yl)-1,6,8-triazatricyclo[7.2.1.0 {2,7}]dodeca-2,4,6-triene-8-carboxamide]	
B (B (EC1.5 1-25 μM))	> 150%	O=C(Nc1cnccn1)N1c2nc(-c3ccn[nH]3)ccc2N2CC[C@H]1C2 [(9S)-N-(pyrazin-2-yl)-5-(1H-pyrazol-5-yl)-1,6,8-triazatricyclo[7.2.1.0 {2,7}]dodeca-2(7),3,5-triene-8-carboxamide]	
B (B (EC1.5 1-25 μM))	> 150%	Cc1cc(-c2ccc3c(n2)N(C(=O)Nc2nccnc2F)[C@H]2CCN3C2)ccn1 [(9S)-N-(3-fluoropyrazin-2-yl)-5-(2-methylpyridin-4-yl)-1,6,8-triazatricyclo[7.2.1.0^{2,7}]dodeca-2,4,6-triene-8-carboxamide]	
C (C (EC1.5>25 μM))	< 150%	Cc1cc(-c2ccc3c(n2)N(C(=O)N[C@H](C)c2ccccn2)[C@H]2CCN3C2)ccn1 [(9S)-5-(2-methylpyridin-4-yl)-N-[(1R)-1-(pyridin-2-yl)ethyl]-1,6,8-triazatricyclo[7.2.1.0 {2,7}]dodeca-2,4,6-triene-8-carboxamide]	
C (C (EC1.5>25 μM))	< 150%	N#Cc1ccc2c(n1)N(C(=O)Nc1cnccn1)[C@H]1CCN2C1 [(9S)-5-cyano-N-(pyrazin-2-yl)-1,6,8-triazatricyclo[7.2.1.0 {2,7}]dodeca-2(7),3,5-triene-8-carboxamide]	

Further lines, the molecule ahead of its results:

SMILES	TRP Activity (EC1.5)	Emax	also measured
O=C(Nc1cccc(-c2cnco2)n1)N1c2nc(-c3cccc(C(F)(F)F)c3)ccc2N2CCC[C@H]1C2 [Example 590]			Tryp AVG EC1.5 (μM) [1]: A (A (EC1.5<1 μM))
O=C(CCCCCNC(=O)c1ccc(-c2c3ccc(=O)cc-3oc3cc(O)ccc23)c(C(=O)O)c1)NCc1ccc(NC(=O)N2c3nc(-c4cccc(C(F)(F)F)c4)ccc3N3CCC[C@H]2C3)cc1 [546 (3), 2-(6-hydroxy-3-oxo-3H-xanthen-9-yl)-5-((6-oxo-6-((4-((9S)-2-(3-(trifluoromethyl)phenyl)-7,8,9,10-tetra-hydro-6H-5,9-methanopyrido[2,3-b][1,4]diazocine-10-carboxamido)benzyl)amino)hexyl)carbamoyl)benzoic acid]			Tryp AVG EC1.5 (μM) [1]: B (B (EC1.5 1-25 μM))
Cc1cc(-c2ccc3c(n2)N(C(=O)N2CCCC2)[C@H]2CCN3C2)ccn1 [(9S)-5-(2-methylpyridin-4-yl)-8-[(pyrrolidin-1-yl)carbonyl]-1,6,8-triazatricyclo[7.2.1.0 {2,7}]dodeca-2,4,6-triene]	C (C (EC1.5>25 μM))	< 150%	
Cc1cc(-c2ccc3c(n2)N(C(=O)Nc2nc(C)c(C)s2)[C@H]2CCCN3C2)ccn1 [(9S)-N-(dimethyl-1,3-thiazol-2-yl)-5-(2-methylpyridin-4-yl)-1,6,8-triazatricyclo[7.3.1.0 {2,7}]trideca-2(7),3,5-triene-8-carboxamide]	A (A (EC1.5<1 μM))	> 150%	
Cc1nc(NC(=O)N2c3nc(-c4cccc(N5CCOCC5)c4)ccc3N3CCC[C@H]2C3)sc1C [Example 537]			Tryp AVG EC1.5 (μM) [1]: B (B (EC1.5 1-25 μM))
O=C(Nc1ccccn1)N1c2nc(-c3cccc(C(F)(F)F)c3)ccc2N2CC[C@H]1C2 [816 (7)]			Tryp AVG EC1.5 (μM) [2]: A (A (EC1.5<1 μM))
O=C(Nc1cnccn1)N1c2nc(-c3ccnc(N4CC[C@@H](F)C4)c3)ccc2N2CC[C@H]1C2 [Example 462]			Tryp AVG EC1.5 (μM) [1]: B (B (EC1.5 1-25 μM))
O=C(NCCCCn1ccnc1)N1c2nc(-c3cccc(C(F)(F)F)c3)ccc2N2CC[C@H]1C2 [Example 689]			Tryp AVG EC1.5 (μM) [2]: B (B (EC1.5 1-25 μM))
O=C(Nc1cncc(F)c1)N1c2nc(-c3cccc(C(F)(F)F)c3)ccc2S(=O)(=O)N2CC[C@H]1C2 [Example 460]			Tryp AVG EC1.5 (μM) [1]: B (B (EC1.5 1-25 μM))
O=C(Nc1ccccn1)N1c2nc(N3CCC[C@H](C(F)(F)F)C3)ccc2N2CC[C@H]1C2 [(9S)-N-(pyridin-2-yl)-5-[(3S)-3-(trifluoromethyl)piperidin-1-yl]-1,6,8-triazatricyclo[7.2.1.0 {2,7}]dodeca-2,4,6-triene-8-carboxamide]	B (B (EC1.5 1-25 μM))	> 150%	
O=C(Nc1ccncn1)N1c2nc(-c3ccnc(C(F)(F)F)c3)ccc2N2CCC[C@H]1C2 [(9S)-N-(pyrimidin-4-yl)-5-[2-(trifluoromethyl)pyridin-4-yl]-1,6,8-triazatricyclo[7.3.1.0 {2,7}]trideca-2(7),3,5-triene-8-carboxamide]	A (A (EC1.5<1 μM))	> 150%	
CS(=O)(=O)c1cncc(-c2ccc3c(n2)N(C(=O)Nc2cccnc2)[C@H]2CCCN3C2)c1 [Example 376]			Tryp AVG EC1.5 (μM) [3]: A (A (EC1.5<1 μM))
Cc1nc(NC(=O)N2c3nc(-c4ccccc4C#N)ccc3N3CCC[C@H]2C3)sc1C [Example 476]			Tryp AVG EC1.5 (μM) [1]: B (B (EC1.5 1-25 μM))
O=C(Nc1cnccn1)N1c2nc(-c3cncc(F)c3)ccc2N2CCC1CC2 [Example 555]			Tryp AVG EC1.5 (μM) [1]: B (B (EC1.5 1-25 μM))
CN(C)c1cccc(-c2ccc3c(n2)N(C(=O)Nc2cnccn2)[C@H]2CCCN3C2)c1 [Example 403]			Tryp AVG EC1.5 (μM) [3]: A (A (EC1.5<1 μM))
Cc1ccc(-c2ccc3c(n2)N(C(=O)NC(C)C)[C@H]2CCN3C2)cn1 [(9S)-5-(6-methylpyridin-3-yl)-N-(propan-2-yl)-1,6,8-triazatricyclo[7.2.1.0^{2,7}]dodeca-2,4,6-triene-8-carboxamide]	B (B (EC1.5 1-25 μM))	> 150%	
O=C(Nc1ccccn1)N1c2nc(-c3cccc(C(F)(F)F)c3)ccc2N2CC[C@@H]1C2 [Example 823]			Tryp AVG EC1.5 (μM) [2]: A (A (EC1.5<1 μM))
O=C(Nc1cccc(CN2CCOCC2)c1)N1c2nc(-c3cccc(C(F)(F)F)c3)ccc2N2CC[C@H]1C2 [Example 629]			Tryp AVG EC1.5 (μM) [2]: A (A (EC1.5<1 μM))
Cc1cc(NC(=O)N2c3nc(-c4ccnc(C)c4)ccc3N3CC[C@H]2C3)ccn1 [(9S)-N,5-bis(2-methylpyridin-4-yl)-1,6,8-triazatricyclo[7.2.1.0 {2,7}]dodeca-2(7),3,5-triene-8-carboxamide]	B (B (EC1.5 1-25 μM))	> 150%	
O=C(Nc1cccc(-c2cnco2)c1)N1c2nc(-c3cccc(Cl)c3)ccc2N2CC[C@H]1C2 [Example 365]			Tryp AVG EC1.5 (μM) [3]: A (A (EC1.5<1 μM))

Reference: patent publication US9834558B2, “Substituted bridged urea analogs as sirtuin modulators” (GLAXOSMITHKLINE LLC, priority 2013, dated 2017)
